Laboratory results reported in paper doi:10.1101/2022.11.11.516135v3 (biorxiv, 2024).

Target: G3BP1-NTF2 (residues 1-139); NTF2-like domain of G3BP1 (Homo sapiens, UniProt Q13283)
Assay: biochemical
Format: binding

Sequence of G3BP1-NTF2 (residues 1-139); NTF2-like domain of G3BP1 (Q13283 1-139): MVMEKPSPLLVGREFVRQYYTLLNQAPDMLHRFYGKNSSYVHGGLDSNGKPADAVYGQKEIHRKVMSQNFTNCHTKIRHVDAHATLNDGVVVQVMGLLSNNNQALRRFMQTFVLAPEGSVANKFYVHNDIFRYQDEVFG

Row | Structure (SMILES) | Kd [µM]
1 | CN1C[C@H](C(=O)N[C@]2(C)O[C@@]3(O)[C@@H]4CCCN4C(=O)[C@H](Cc4ccccc4)N3C2=O)C[C@@H]2c3cccc4[nH]cc(c34)C[C@H]21 [DHD, Dihydroergotamine] | 54
2 | O=C1NCN(c2ccccc2)C12CCN(CCCC(c1ccc(F)cc1)c1ccc(F)cc1)CC2 [FLU, Fluspiriline] | 71.4
3 | CNC(=O)c1c(F)cccc1Nc1nc(Nc2cc3c(cc2OC)CCN3C(=O)CN(C)C)nc2[nH]ccc12 [GSK, GSK1838705A] | 98
4 | COc1ccc(Br)cc1S(=O)(=O)NC(=O)/C=C/c1ccccc1Cc1ccc2ccccc2c1 [L-7, L-798106] | 18.7
5 | CC[C@H](NC(=O)c1c(C)c(-c2ccccc2)nc2ccccc12)c1ccccc1 [SB2, SB_222200] | 66
